# Data as given in ChEMBL document CHEMBL1201862, “PubChem BioAssay data set” (2004).
# Calls of active or inactive are those of the source.
# Assays:
# [1] = HeLa cell cytotoxicity, dose response, cytotoxicity control for MgcRacGAP inhibitor project (AID 624300); assay type: functional
# [2] = molecular target: T1, Rac GTPase-activating protein 1 (Homo sapiens, UniProt Q9H0H5); experiment: MgcRacGAP GTPase-activating activity inhibitors, confirmation, biochemical, ADP Hunter fluorescence, primary and confirmatory (AID 624330); assay type: functional
# T1 sequence (Q9H0H5 whole entry): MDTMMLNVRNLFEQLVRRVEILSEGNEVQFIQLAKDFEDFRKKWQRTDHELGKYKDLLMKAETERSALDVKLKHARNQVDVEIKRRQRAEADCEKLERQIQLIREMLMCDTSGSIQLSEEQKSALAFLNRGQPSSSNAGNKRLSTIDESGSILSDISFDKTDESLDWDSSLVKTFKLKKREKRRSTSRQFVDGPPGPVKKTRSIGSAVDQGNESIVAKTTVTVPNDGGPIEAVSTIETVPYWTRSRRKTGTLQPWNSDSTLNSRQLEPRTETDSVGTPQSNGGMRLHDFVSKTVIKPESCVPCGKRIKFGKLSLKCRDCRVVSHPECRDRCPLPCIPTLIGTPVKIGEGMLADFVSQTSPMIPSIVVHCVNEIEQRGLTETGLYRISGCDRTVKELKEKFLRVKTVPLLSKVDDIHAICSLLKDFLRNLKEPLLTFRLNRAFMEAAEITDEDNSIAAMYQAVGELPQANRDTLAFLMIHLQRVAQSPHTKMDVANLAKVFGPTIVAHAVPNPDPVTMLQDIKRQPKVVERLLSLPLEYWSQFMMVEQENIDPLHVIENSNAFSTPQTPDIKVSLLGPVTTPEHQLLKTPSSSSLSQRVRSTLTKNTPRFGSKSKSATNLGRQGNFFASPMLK
# [3] = A Cell Based Secondary Assay To Explore Cytotoxicity of Compounds that Sensitize Mycobacterium Tuberculosis to Beta-Lactam Antibiotics.; assay type: functional
# Cytochrome P450 2D6 = Cytochrome P450 2D6 (Homo sapiens, UniProt P10635);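 further: CYP2D6 member of a cytochrome P450 panel assay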
# Cytochrome P450 2C19 = Cytochrome P450 2C19 (Homo sapiens, UniProt P33261); experiment: Cytochrome panel assay with activity outcomes. Panel member name: p450-cyp2c19 Compounds with AC50 equal or less than 10 uM are considered active; assay type: functional; settings: read-out: AC50
# Large T antigen = Large T antigen (Simian virus 40, UniProt P03070); assay type: functional, Betapolyomavirus macacae;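 further: Confirmatory-stage PubChem screen for compounds that inhibit SV40 T antigen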
# Aminopeptidase N = molecular target: T2, Aminopeptidase N (Plasmodium falciparum FcB1/Columbia, UniProt O96935); experiment: P. falciparum M1AAP inhibitors, biochemical, fluorogenic H-Leu-NHMec substrate, 1536-well (AID 1445); design: species or system Plasmodium falciparum 3D7, 3D7
# T2 sequence (O96935 whole entry): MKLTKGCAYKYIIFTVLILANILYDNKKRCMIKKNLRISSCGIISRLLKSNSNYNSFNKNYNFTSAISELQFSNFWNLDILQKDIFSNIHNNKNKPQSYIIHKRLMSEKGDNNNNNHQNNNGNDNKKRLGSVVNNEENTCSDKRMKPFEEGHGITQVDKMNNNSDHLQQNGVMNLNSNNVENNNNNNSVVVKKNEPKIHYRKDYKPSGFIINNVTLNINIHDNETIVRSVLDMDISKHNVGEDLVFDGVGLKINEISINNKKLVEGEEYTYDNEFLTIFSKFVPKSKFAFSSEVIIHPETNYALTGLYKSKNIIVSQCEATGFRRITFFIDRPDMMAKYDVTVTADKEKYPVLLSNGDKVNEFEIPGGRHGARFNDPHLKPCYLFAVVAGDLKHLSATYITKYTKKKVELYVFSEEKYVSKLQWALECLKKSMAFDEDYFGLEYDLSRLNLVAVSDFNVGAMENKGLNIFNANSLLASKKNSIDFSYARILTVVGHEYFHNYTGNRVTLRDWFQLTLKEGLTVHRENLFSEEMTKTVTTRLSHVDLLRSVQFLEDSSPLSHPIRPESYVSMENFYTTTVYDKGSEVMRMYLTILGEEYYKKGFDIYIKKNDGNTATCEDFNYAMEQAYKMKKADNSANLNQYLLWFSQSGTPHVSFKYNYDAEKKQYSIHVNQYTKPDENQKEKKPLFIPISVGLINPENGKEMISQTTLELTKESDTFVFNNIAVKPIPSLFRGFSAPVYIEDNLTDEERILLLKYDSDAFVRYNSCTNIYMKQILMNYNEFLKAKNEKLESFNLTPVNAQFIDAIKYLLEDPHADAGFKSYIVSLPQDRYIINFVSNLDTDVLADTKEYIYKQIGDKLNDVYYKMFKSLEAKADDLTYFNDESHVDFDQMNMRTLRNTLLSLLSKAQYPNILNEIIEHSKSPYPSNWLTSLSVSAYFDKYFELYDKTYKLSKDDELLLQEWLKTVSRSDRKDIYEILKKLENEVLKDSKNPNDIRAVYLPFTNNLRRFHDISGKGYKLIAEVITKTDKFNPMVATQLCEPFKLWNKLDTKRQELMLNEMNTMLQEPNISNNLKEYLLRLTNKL
# [4] = molecular target: T3, Calpain-2 catalytic subunit (Sus scrofa, UniProt P43367); experiment: pig calpain II inhibitor potency, dose response, biochemical, fluorogenic peptide substrate (AID 1420); assay type: functional
# T3 sequence (P43367 whole entry): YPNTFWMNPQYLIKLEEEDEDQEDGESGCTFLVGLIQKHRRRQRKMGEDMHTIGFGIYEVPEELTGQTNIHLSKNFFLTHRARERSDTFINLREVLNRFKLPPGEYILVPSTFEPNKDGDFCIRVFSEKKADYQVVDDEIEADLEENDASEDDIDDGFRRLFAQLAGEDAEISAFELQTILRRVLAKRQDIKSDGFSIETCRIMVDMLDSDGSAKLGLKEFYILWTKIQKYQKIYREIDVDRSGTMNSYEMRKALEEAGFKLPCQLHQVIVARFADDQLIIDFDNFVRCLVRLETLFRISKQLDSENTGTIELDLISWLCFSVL
# [5] = inhibitors of Vif binding to APOBEC3G peptide, primary screen, biochemical, TR-FRET, GST-Vif 1-94, biotin-A3G peptide, dose response retest (AID 1117319); assay type: functional;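 further: TR-FRET signal of purified GST-Vif binding a biotinylated A3G peptide; inhibitors lower the FRET signal by blocking Vif and A3G binding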
# [6] = HEK293 cell cytotoxicity, dose response, cytotoxicity control, plate reader, cherry-picked samples (AID 743446); assay type: functional, cell-based
# [7] = A549 cell cytotoxicity, dose response, cytotoxicity control, plate reader, cherry-pick, antagonist series (AID 743412); assay type: functional, cell-based
# [8] = MC4R antagonists, dose response, counter-screen for LGR2 antagonist project, cell-based, plate reader, cherry pick (AID 743444); assay type: functional;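 further: transfected HEK 293 cells stimulated with alpha-MSH peptide; potency of inhibitors of the alpha-MSH evoked signal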
# [9] = HepG2 cell cytotoxicity, dose response, cytotoxicity control, plate reader, cherry-pick, antagonist series (AID 743416); assay type: functional, cell-based
# [10] = LGR2 antagonists, dose response, cell-based, HEK293, CRE-luciferase reporter, cherry pick, set 2 (AID 743343); assay type: functional;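 further: transfected cells were stimulated with diluted bursicon conditioned medium after compound addition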
# HeLa = experiment: HeLa cell cytotoxicity, dose response, cytotoxicity control, 24 h, cherry-picked samples (AID 504726); assay type: functional, cell-based; settings: Homo sapiens;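 further: potency for cytotoxicity as loss of luminescence signal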
# [11] = P. falciparum late gametocyte killing, dose response, luminescence (AID 1117278); assay type: functional, cell-based;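 further: gametocytes exposed to compound for 24 hours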
# [12] = Jurkat T cell cytotoxicity, dose response, cytotoxicity control for P. falciparum gametocyte viability project, luminescence (AID 1117277); assay type: functional, cell-based;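 further: potency reflects loss of cellular ATP meaning fewer viable cells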
# Large T antigen, sequence (P03070 whole entry): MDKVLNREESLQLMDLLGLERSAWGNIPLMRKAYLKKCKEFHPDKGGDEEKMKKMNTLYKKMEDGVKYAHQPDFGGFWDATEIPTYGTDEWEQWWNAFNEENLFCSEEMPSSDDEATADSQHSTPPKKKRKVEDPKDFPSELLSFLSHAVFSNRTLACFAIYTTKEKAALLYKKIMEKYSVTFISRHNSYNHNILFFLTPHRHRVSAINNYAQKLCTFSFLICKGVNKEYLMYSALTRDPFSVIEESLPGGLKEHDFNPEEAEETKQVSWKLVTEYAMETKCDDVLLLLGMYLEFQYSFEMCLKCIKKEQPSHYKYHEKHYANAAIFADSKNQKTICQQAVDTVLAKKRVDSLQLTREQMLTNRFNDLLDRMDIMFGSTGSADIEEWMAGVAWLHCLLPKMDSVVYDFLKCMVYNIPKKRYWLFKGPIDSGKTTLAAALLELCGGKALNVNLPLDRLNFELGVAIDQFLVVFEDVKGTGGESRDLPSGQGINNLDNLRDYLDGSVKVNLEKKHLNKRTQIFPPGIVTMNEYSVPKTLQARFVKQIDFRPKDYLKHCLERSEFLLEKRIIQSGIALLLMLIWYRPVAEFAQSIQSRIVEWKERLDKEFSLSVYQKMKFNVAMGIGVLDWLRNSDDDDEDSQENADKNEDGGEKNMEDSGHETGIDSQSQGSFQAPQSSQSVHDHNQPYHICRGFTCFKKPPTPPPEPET
# Cytochrome P450 2C19, sequence (P33261 whole entry): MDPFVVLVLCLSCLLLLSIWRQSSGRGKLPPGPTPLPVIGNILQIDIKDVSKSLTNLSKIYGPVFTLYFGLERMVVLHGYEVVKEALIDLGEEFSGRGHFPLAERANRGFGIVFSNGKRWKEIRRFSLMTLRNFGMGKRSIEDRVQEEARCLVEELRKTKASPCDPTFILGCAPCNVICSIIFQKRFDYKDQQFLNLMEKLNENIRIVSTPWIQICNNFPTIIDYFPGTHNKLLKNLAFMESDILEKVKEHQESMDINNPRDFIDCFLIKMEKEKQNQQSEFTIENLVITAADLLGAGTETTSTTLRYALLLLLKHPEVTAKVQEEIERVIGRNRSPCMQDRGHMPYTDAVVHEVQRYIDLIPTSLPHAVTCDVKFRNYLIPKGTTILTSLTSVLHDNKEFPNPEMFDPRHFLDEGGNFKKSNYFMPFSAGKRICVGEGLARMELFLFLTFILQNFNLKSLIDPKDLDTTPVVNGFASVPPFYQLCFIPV
# Cytochrome P450 2D6, sequence (P10635 whole entry): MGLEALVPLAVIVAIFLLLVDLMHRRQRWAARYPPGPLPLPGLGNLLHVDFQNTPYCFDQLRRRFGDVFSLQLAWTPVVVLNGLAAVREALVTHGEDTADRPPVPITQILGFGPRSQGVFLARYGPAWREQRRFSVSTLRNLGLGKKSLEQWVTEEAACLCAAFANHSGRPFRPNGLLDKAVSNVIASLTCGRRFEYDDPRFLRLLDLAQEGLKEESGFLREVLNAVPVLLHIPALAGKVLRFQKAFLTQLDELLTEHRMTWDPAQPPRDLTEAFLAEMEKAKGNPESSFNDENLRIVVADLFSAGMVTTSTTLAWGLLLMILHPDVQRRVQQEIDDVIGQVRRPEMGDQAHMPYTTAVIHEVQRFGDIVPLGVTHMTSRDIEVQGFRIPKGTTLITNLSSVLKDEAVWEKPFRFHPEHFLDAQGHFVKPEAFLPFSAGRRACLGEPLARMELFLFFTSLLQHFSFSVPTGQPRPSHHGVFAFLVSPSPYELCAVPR
smiles,measurement,setting,value
Cc1ccc(CN2CCN(Cc3ccccc3C(F)(F)F)CC2)cc1,CC50,[1],100 µM (active)
same,IC50,[2],40.4 µM (active)
Cc1[nH]c2c(C)cccc2c1CCNC(=O)c1ccc2c(c1[N+](=O)[O-])C(=O)c1ccccc1C2=O,CC50,[3],17.2 µM (active)
same,AC50,Cytochrome P450 2D6,2 µM (inconclusive)
same,AC50,Cytochrome P450 2C19,0.398 µM (inconclusive)
COc1cc(/C=N/N2C(=O)CSC2=S)cc(Br)c1O,IC50,Large T antigen,12.8 µM (active)
same,IC50,Aminopeptidase N,107 µM (active)
Oc1nc(-c2ccccc2Cl)nc2c1sc(=S)n2-c1ccccc1,IC50,[4],41.7 µM (not active)
Cc1ccc(N=Nc2ccc(N)cc2C)c(S(N)(=O)=O)c1,IC50,[5],> 100 µM (active)
COc1ccc(C(=O)Nc2nc3ccccc3[nH]2)cc1,AC50,[6],> 52 µM (inactive)
same,AC50,[7],34.6 µM (active)
same,AC50,[8],2.84 µM (active)
same,AC50,[9],> 52 µM (inactive)
same,AC50,[10],2.45 µM (active)
COC(=O)C1=C(c2ccc(OC(F)(F)F)cc2)C[C@@H]2CC[C@H]1N2C(=O)NC1CCCCC1,AC50,HeLa,> 350 µM (inactive)
CN(Cc1nc(-c2cnccn2)no1)Cc1[nH]nc2c1CCCC2,IC50,[4],7.73 µM (not active)
CN(C)S(=O)(=O)N(CC(=O)Nc1ccccc1)c1ccccc1,IC50,[11],> 109 µM (inactive)
same,IC50,[12],> 83.3 µM (inactive)
COc1ccc(OC)c(/C(O)=C/C(=O)C(=O)Nc2ccccc2OC)c1,IC50,[5],> 100 µM (active)
CCc1nc(C)ccc1OC(=O)C12CC3CC(CC(C3)C1)C2,IC50,[4],8.73 µM (not active)
Nc1ccc(Cn2ccc3c4c(N)nc(N)nc4ccc32)cc1,CC50,[1],49.5 µM (active)
same,IC50,[2],77 µM (active)
O=C(/C=C/c1ccc2c(c1)OCO2)Nc1nc2ccccc2s1,CC50,[3],> 40 µM (active)
CCn1c(SCC(=O)n2c(C)c(C)c3ccccc32)nnc1-c1ccco1,IC50,[5],> 100 µM (active)
C1CCN(CCCNC2C3CC4CC(C3)CC2C4)C1 (stereo not drawn),IC50,[11],> 109 µM (inactive)
same,IC50,[12],> 83.3 µM (inactive)
CCCCN(CC)CCNC(=O)CN(C)S(=O)(=O)c1ccc2c(c1)c(=O)n(C)c(=O)n2C,IC50,[11],> 109 µM (inactive)
same,IC50,[12],> 83.3 µM (inactive)
